These results are taken from US7579504B2, “ABCA1 elevating compounds” (Gilead Sciences, Inc., priority 2005, dated 2009).

SMILES strings stand for the structures.

The test concerns ABCA1 mRNA. Nature of the test: ABCA1 mRNA induction in THP-1 cells, QuantiGene branched DNA assay. It counts as cell-based. Conditions: Homo sapiens, 18-20 hours, read-out: ABCA1 Induction Fold Increase over DMSO Vehicle. As to the method: Modulation of expression of ABCA1 mRNA levels by the compounds of the invention was determined in the following assays.
Induction of ABC1 in THP-1 cells, was measured using QuantiGene® branched DNA assay as per manufacturer's instructions. Cultures of THP-1 were grown to subconfluence in DMEM/10% FBS before replacement with DMEM/BSA and 10 and 3 μM concentrations of the test compounds in DMSO for 18-20 hours. After treatment of cells with compounds, the cells were lysed with lysis buffer at 37° C. for 20 minutes. The cell lysate and ABCA1 specific probe (Genospectra, Inc., Fremont, Calif.) mix were added to the 96 well capture plate and hybridized at 53° C. for 16-18 hours. The signal was amplified using the amplifier and label probes provided with the QuantiGene® assay followed by addition of a luminescent alkaline phosphatase substrate, dioxitane. Luminescence was quantified in Victor V plate reader.
Step 1 • Cells are lysed to release mRNA in the presence of target probes. Target mRNA from lysed cells was then captured by hybridization and transferred to the Capture Plate.
Step 2 • Signal amplification was performed by hybridization of the bDNA Amplifier and Label Probe.
Step 3 • Addition of chemiluminescence substrate yielded a QuantiGene® signal proportional to the amount of mRNA present in the sample.
Table 1 presents the relative fold increase in ABCA1 expression over DMSO for compounds of the invention when tested at a concentration of 10 μM.
Regarding `Cc1ccc(CNC(=O)C2CCC(CN(Cc3ccccc3)S(=O)(=O)c3c(F)cccc3F)CC2)cc1` (stereo not shown) [Compound 29, [4-({[(2,6-difluorophenyl)sulfonyl]benzylamino}methyl)cyclohexyl]-N-[(4-methylphenyl)methyl]carboxamide], the fold induction at 10 µM came out at 6.9.
With `Cc1ccc(CNC(=O)C2CCC(CN(Cc3ccccc3)S(=O)(=O)c3ccc(Cl)cc3)CC2)cc1` (stereo not shown) [Compound 44, [4-({[(4-chlorophenyl)sulfonyl]benzylamino}methyl)cyclohexyl]-N-[(4-methylphenyl)methyl]carboxamide], the fold induction at 10 µM stood at 3.2.
As for `Cc1ccc(CNC(=O)C2CCC(CN(Cc3ccccc3)S(=O)(=O)c3ccccc3)CC2)cc1` (stereo not shown) [Compound 4, N-[(4-methylphenyl)methyl](4-{[benzyl(phenylsulfonyl)amino]methyl}cyclohexyl)carboxamide], the figure is 3.8; as for `Cc1ccc(CNC(=O)C2CCC(CN(Cc3cccc(F)c3F)S(=O)(=O)c3ccccc3)CC2)cc1` (stereo not shown) [Compound 2, [4-({[(2,3-difluorophenyl)methyl](phenylsulfonyl)amino}methyl)cyclohexyl]-N-[(4-methylphenyl)methyl]carboxamide], 6.3.
To `Cc1ccc(CNC(=O)C2CCC(CN(Cc3ccccc3)S(=O)(=O)c3ccc(F)c(F)c3)CC2)cc1` (stereo not shown) [Compound 12, [4-({[(3,4-difluorophenyl)sulfonyl]benzylamino}methyl)cyclohexyl]-N-[(4-methylphenyl)methyl]carboxamide] belongs 2.6; to `Cc1ccc(CNC(=O)C2CCC(CN(Cc3ccccc3)S(=O)(=O)c3c(C)cc(C)cc3C)CC2)cc1` (stereo not shown) [Compound 34, N-[(4-methylphenyl)methyl][4-({benzyl[(2,4,6-trimethylphenyl)sulfonyl]amino}methyl)cyclohexyl]carboxamide], 2.1.
To `Cc1ccc(CNC(=O)C2CCC(CN(Cc3ccccc3)S(=O)(=O)c3ccc(C)c(F)c3)CC2)cc1` (stereo not shown) [Compound 39, [4-({[(3-fluoro-4-methylphenyl)sulfonyl]benzylamino}methyl)cyclohexyl]-N-[(4-methylphenyl)methyl]carboxamide] belongs 4; to `Cc1ccc(CNC(=O)C2CCC(CN(Cc3ccccc3)S(=O)(=O)c3ccc(F)cc3C)CC2)cc1` (stereo not shown) [Compound 33, [4-({[(4-fluoro-2-methylphenyl)sulfonyl]benzylamino}methyl)cyclohexyl]-N-[(4-methylphenyl)methyl]carboxamide], 4.1; to `Cc1ccc(CNC(=O)C2CCC(CN(Cc3ccccc3)S(=O)(=O)c3ccc(C(C)(C)C)cc3)CC2)cc1` (stereo not shown) [Compound 13, {4-[({[4-(tert-butyl)phenyl]sulfonyl}benzylamino)methyl]cyclohexyl}-N-[(4-methylphenyl)methyl]carboxamide], 2.7.
Take `Cc1ccc(CNC(=O)C2CCC(CN(Cc3ccccc3)S(=O)(=O)c3ccccc3C)CC2)cc1` (stereo not shown) [Compound 9, N-[(4-methylphenyl)methyl][4-({[(2-methylphenyl)sulfonyl]benzylamino}methyl)cyclohexyl]carboxamide]: the fold induction at 10 µM amounted to 4.9.
As for `Cc1ccc(CNC(=O)C2CCC(CN(Cc3ccccc3)S(=O)(=O)c3cccs3)CC2)cc1` (stereo not shown) [Compound 15, N-[(4-methylphenyl)methyl](4-{[benzyl(2-thienylsulfonyl)amino]methyl}cyclohexyl)carboxamide], the figure is 4.3; as for `Cc1ccc(CNC(=O)C2CCC(CN(Cc3ccccc3)S(=O)(=O)c3c(F)c(F)c(F)c(F)c3F)CC2)cc1` (stereo not shown) [Compound 37, N-[(4-methylphenyl)methyl][4-({[(2,3,4,5,6-pentafluorophenyl)sulfonyl]benzylamino}methyl)cyclohexyl]carboxamide], 3.
As for `COc1ccc(S(=O)(=O)N(Cc2ccccc2)CC2CCC(C(=O)NCc3ccc(C)cc3)CC2)cc1` (stereo not shown) [Compound 45, [4-({[(4-methoxyphenyl)sulfonyl]benzylamino}methyl)cyclohexyl]-N-[(4-methylphenyl)methyl]carboxamide], the figure is 4.3.
